Data taken from ChEMBL document CHEMBL4261582, “Natural products as inhibitors of Leishmania major dihydroorotate dehydrogenase” (Eur J Med Chem, 2018).
Each block holds one compound with its values, some of them ahead of it.

Legend:
[1] = target: T1, Dihydroorotate dehydrogenase (fumarate) (Leishmania major, UniProt Q4QEW7); test: Inhibition of recombinant oligo-histidine-tagged Leishmania major DHODH expressed in Escherichia coli BL21(DE3) cells using DHO as substrate measured after 60 secs; conditions: read-out: IC50
T1 sequence (Q4QEW7 whole entry): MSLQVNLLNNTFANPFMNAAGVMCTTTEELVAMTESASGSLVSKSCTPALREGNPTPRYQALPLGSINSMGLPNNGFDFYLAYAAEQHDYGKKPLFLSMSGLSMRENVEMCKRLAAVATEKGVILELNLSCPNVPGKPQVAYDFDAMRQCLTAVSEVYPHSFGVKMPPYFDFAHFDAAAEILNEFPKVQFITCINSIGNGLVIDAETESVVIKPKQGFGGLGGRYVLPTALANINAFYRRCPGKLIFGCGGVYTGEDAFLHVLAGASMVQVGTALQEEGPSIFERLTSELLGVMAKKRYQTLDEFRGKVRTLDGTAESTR

[2] = tested on: Trypanosoma brucei rhodesiense; test: Antitrypanosomal activity against Trypanosoma brucei rhodesiense STIB900 trypomastigotes; format: functional, organism-based
Leishmania donovani [3] = test: Antileishmanial activity against Leishmania donovani amastigotes; format: functional, organism-based
Trypanosoma cruzi [4] = test: Antitrypanosomal activity against Trypanosoma cruzi amastigotes; format: functional, organism-based
Leishmania infantum = test: Antileishmanial activity against Leishmania infantum MHOM/BR/1972/LD promastigotes; format: functional, organism-based
Leishmania amazonensis [5] = test: Antileishmanial activity against Leishmania amazonensis MHOM/BR/77/LTB 0016 promastigotes after 72 hrs by MTT assay; format: functional, organism-based; conditions: MHOM/BR/77/LTB 0016, 72 h
Leishmania amazonensis [6] = test: Antileishmanial activity against Leishmania amazonensis MHOM/BR/77/LTB 0016 amastigotes infected in mouse peritoneal macrophages after 72 hrs by staining-based assay; format: functional, organism-based; conditions: MHOM/BR/77/LTB 0016, 72 h
Trypanosoma brucei = test: Antitrypanosomal activity against Trypanosoma brucei TC221 trypomastigotes after 24 hrs by Alamar Blue assay; format: functional, organism-based; conditions: TC221, 24 h
Leishmania donovani [7] = test: Antileishmanial activity against Leishmania donovani MHOM/ET/67/L82 amastigotes after 72 hrs by Alamar Blue assay; format: functional, organism-based; conditions: MHOM/ET/67/L82, 72 h
[8] = tested on: Trypanosoma brucei rhodesiense; test: Antitrypanosomal activity against Trypanosoma brucei rhodesiense STIB900 trypomastigotes after 72 hrs by Alamar Blue assay; format: functional, organism-based; conditions: STIB 900, 72 h
Trypanosoma cruzi [9] = test: Antitrypanosomal activity against Trypanosoma cruzi Tulahuen C2C4 trypomastigotes infected in rat skeletal myoblasts L-6 cells after 96 hrs by CPRG/Nonidet reagent based spectrophotometric method; format: functional, organism-based; conditions: Tulahuen C2C4, L6, 96 h
[10] = target: Dihydroorotate dehydrogenase (quinone), mitochondrial (Homo sapiens) (UniProt Q02127); test: Inhibition of human DHODH at 100 uM
Dihydroorotate dehydrogenase (quinone), mitochondrial (Homo sapiens), sequence (Q02127 whole entry): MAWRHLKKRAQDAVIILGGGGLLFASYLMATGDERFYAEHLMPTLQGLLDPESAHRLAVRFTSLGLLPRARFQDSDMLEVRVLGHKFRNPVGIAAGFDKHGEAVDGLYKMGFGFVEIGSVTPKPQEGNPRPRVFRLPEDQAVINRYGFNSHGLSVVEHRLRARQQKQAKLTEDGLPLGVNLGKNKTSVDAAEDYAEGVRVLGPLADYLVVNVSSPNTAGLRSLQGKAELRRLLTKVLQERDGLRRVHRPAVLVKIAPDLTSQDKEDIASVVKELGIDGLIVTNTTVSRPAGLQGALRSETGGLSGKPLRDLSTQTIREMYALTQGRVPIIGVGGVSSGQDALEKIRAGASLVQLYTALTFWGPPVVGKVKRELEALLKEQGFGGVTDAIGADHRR

[11] = target: T2, Dihydroorotate dehydrogenase (fumarate) (Leishmania major) (UniProt Q4QEW7); test: Inhibition of recombinant oligo-histidine-tagged Leishmania major DHODH expressed in Escherichia coli BL21(DE3) cells at 100 uM using DHO as substrate measured after 60 secs
T2 sequence (whole entry): T1 sequence (Q4QEW7 whole entry)

[12] = target: T2, Dihydroorotate dehydrogenase (fumarate) (Leishmania major); test: Binding affinity to Leishmania major DHODH assessed as change in melting temperature at 100 uM by differential scanning fluorimetry-based ThermoFMN assay
[13] = target: T2, Dihydroorotate dehydrogenase (fumarate) (Leishmania major); test: Binding affinity to Leishmania major DHODH assessed as change in melting temperature at 500 uM by differential scanning fluorimetry-based ThermoFMN assay
[14] = target: T2, Dihydroorotate dehydrogenase (fumarate) (Leishmania major); test: Binding affinity to Leishmania major DHODH assessed as change in melting temperature at 1000 uM by differential scanning fluorimetry-based ThermoFMN assay
[15] = target: T2, Dihydroorotate dehydrogenase (fumarate) (Leishmania major); test: Binding affinity to Leishmania major DHODH assessed as change in melting temperature at 100 uM by SYPRO orange dye-based differential scanning fluorimetry
[16] = target: T2, Dihydroorotate dehydrogenase (fumarate) (Leishmania major); test: Binding affinity to Leishmania major DHODH assessed as change in melting temperature at 500 uM by SYPRO orange dye-based differential scanning fluorimetry
[17] = target: T2, Dihydroorotate dehydrogenase (fumarate) (Leishmania major); test: Binding affinity to Leishmania major DHODH assessed as change in melting temperature at 1000 uM by SYPRO orange dye-based differential scanning fluorimetry
Leishmania amazonensis [18] = test: Antileishmanial activity against Leishmania amazonensis promastigotes; format: functional, organism-based
Leishmania braziliensis = test: Antileishmanial activity against Leishmania braziliensis promastigotes; format: functional, organism-based
[19] = target: T2, Dihydroorotate dehydrogenase (fumarate) (Leishmania major); test: Inhibition of recombinant oligo-histidine-tagged Leishmania major DHODH expressed in Escherichia coli BL21(DE3) cells at 150 uM using DHO as substrate measured after 60 secs
Trypanosoma cruzi [20] = test: Antitrypanosomal activity against Trypanosoma cruzi Y amastigotes after 24 hrs by Gential violet staining-based assay; format: functional, organism-based
Leishmania donovani [21] = test: Antileishmanial activity against Leishmania donovani MHOM/ET/67/L82 axenic amastigotes after 72 hrs by resazurin dye-based fluorescence assay; format: functional, organism-based; conditions: MHOM/ET/67/L82, 72 h
[22] = tested on: Trypanosoma brucei rhodesiense; test: Antitrypanosomal activity against Trypanosoma brucei rhodesiense STIB 900 trypomastigotes after 72 hrs by resazurin dye-based fluorescence assay; format: functional, organism-based; conditions: STIB 900, 72 h
Trypanosoma cruzi [23] = test: Antitrypanosomal activity against Trypanosoma cruzi Tulahuen trypomastigotes after 96 hrs by CPRG/Nonidet reagent based spectrophotometric method; format: functional, organism-based

Structure (SMILES): C=C1C(=O)O[C@@H]2/C=C(/CO)C3=CC(=O)[C@@](C)(C[C@@H](OC(=O)/C(C)=C\C)[C@@H]12)O3
IC50 [1]: 653 µM | IC50 [2]: 0.07 µM | IC50 (Leishmania donovani [3]): 5.14 µM | IC50 (Trypanosoma cruzi [4]): 1.75 µM | IC50 (Leishmania infantum): 28 µM

Structure (SMILES): CN1[C@@H]2C[C@H](OC(=O)[C@H](CO)c3ccccc3)C[C@H]1[C@@H]1O[C@@H]12
IC50 [1]: 795 µM | IC50 (Leishmania amazonensis [5]): > 100 µM | IC50 (Leishmania amazonensis [6]): > 25 µM | IC50 (Trypanosoma brucei): > 100 µM

Structure (SMILES): CC[C@H](CC[C@H](C)[C@H]1CC[C@H]2[C@@H]3CC=C4C[C@@H](O)CC[C@]4(C)[C@H]3CC[C@]12C)C(C)C
IC50 [1]: 414 µM | IC50 (Leishmania donovani [7]): 27.8 µM | IC50 [8]: 86.1 µM | IC50 (Trypanosoma cruzi [9]): 35.4 µM

inhibition [10]: 0% | inhibition [11]: 41% | IC50 [1]: 30.9 µM | ΔTm [12]: -0.21 °C | ΔTm [13]: -0.41 °C | ΔTm [14]: -0.7 °C | ΔTm [15]: -0.27 °C | ΔTm [16]: -0.47 °C | ΔTm [17]: -0.64 °C | IC50 (Leishmania amazonensis [18]): 46.1 µM | IC50 (Leishmania braziliensis): 27.9 µM
Structure (SMILES): CC(=O)OCC1=C2[C@@H](OC(C)=O)C[C@@](C)(OC(C)=O)C(=O)CC[C@@]3(C)O[C@@H]3[C@H]2OC1=O

inhibition [10]: 3% | inhibition [19]: 64% | IC50 [1]: 26.8 µM
Structure (SMILES): C=C1C(=O)O[C@@H]2[C@H]3C(C)=CC(=O)C3=C(C)C[C@@H](OC(=O)/C(C)=C/C)[C@@H]12

IC50 [1]: 1320 µM | IC50 (Trypanosoma cruzi [20]): 386 µM
Structure (SMILES): C=C[C@]1(C)C=C2CC[C@H]3[C@@](C)(CCC[C@]3(C)C(=O)O)[C@@H]2CC1

IC50 [1]: 361 µM | IC50 [22]: 1.3 µM | IC50 (Trypanosoma cruzi [23]): 16.8 µM
Structure (SMILES): C=C1C(=O)O[C@@H]2/C=C(\CO)CC/C=C(\C)C[C@H](OC(=O)C(=C)[C@@H](O)CO)[C@@H]12
IC50 (Leishmania donovani [21]): 15.2 µM
